In US10487088B2, “Tricyclic compound serving as immunomodulator” (Chia Tai Tianqing Pharmaceutical Group Co., Ltd., priority 2016, dated 2019):
“Also recorded” adds a separate entry of the source.

How the values were obtained:
[1] = target: T1, recombinant human IDO1 enzyme (Homo sapiens, UniProt P14902); assay: In vitro hIDO1 enzyme activity test (NFK Green fluorescence); type: biochemical; conditions: recombinant human IDO1, L-tryptophan substrate, pH 6.5
T1 construct: purchased NTRC NTRC-hlDO-10K
Outline: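 Recombinant human IDO1 diluted to 20 nM in pH 6.5 phosphate buffer with ascorbate, catalase and methylene blue, preincubated with compound 30 min at 23° C, then L-tryptophan added (400 μM solution) for 90 min. NFK Green developed 4 h at 37° C (Ex 400/Em 510 nm); IC50 from 10-point 3-fold series, no-enzyme wells as 100% inhibition.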

[2] = target: T2, IDO1 enzyme in Hela cells (Homo sapiens, UniProt P14902); assay: hIDO1 cytological activity assay (kynurenine in Hela cells by LC-MS); type: cell-based; conditions: Hela cells induced with 100 ng/mL recombinant human γ-interferon, 20 h, read-out: IC50 hIDO1 Cytoactive
T2 construct: recombinant human γ-interferon was added at a final concentration of 100 ng/mL to induce IDO1 expression; endogenous in cells; host or cells: Hela cells, induced with recombinant human γ-interferon
Method: The change of kynurenine in Hela cells was detected by the LC-MS method, and the IC50 value of the compound was used as an index, to evaluate the inhibitory effect of the compound on IDO1 enzyme.
A medium, trypsin and DPBS were pre-heated in a 37° C. water bath. The medium for cell culture was sucked out and washed with 10 mL of DPBS; then the pre-heated trypsin was added into the culture flask, and the flask was rotated to allow the trypsin to uniformly cover it, and then placed in a 37° C., 5% CO2 incubator and digested for 1-2 min; in each T150, cells were dispersed with 10-15 mL of medium, centrifuged at 800 rpm for 5 min, and then resuspended in 10 mL of medium; 1 mL of cell suspension was pipetted and the cells were counted with Vi-cell; Hela cells were diluted with medium to 5×10^5/mL, 80 μL of the solution was added to a 96-cell plate, and cultured at 37° C. for 5-6 h in a 5% CO2 incubator.
The compound was diluted to 1 mM in DMSO, and then diluted 3-fold in duplicate wells, with 9 gradients. 5 μL of the diluted solution of the compound in DMSO was added to the compound plate containing 95 μL of the medium, and mixed, followed by transferring 10 μL of the mixture to a cell plate.
10 μL of recombinant human γ-interferon was added at a final concentration of 100 ng/mL to induce IDO1 expression. The cells were incubated at 37° C. for 20 h in a 5% CO2 incubator. 4 μL of 5% (w/v) trichloroacetic acid was added thereto, mixed and incubated at 50° C. for 30 min. After centrifugation at 2400 rpm for 10 min, 40 μL of the supernatant was taken and placed in a 96-well V-bottom plate, and then a precipitant was added in the plate. After mixing, the mixture was centrifuged at 4000 rpm for 10 min. 100 μL of the supernatant was transferred to a new 96-well V-bottom plate. The content of kynurenine was determined by LC-MS.
The control wells having γ-interferon but no compound was set as 0% inhibition, and the control wells without Hela cell was set as 100% inhibition, and the IC50 value of the compound was calculated by analyzing the data with XLFit 5.

IDO1 = IDO1 (Mus musculus, UniProt P28776); assay: In vivo pharmacodynamics of IDO1: Kyn level in lung and plasma of LPS-induced C57BL/6 mice
Sequence of IDO1 (P28776 whole entry): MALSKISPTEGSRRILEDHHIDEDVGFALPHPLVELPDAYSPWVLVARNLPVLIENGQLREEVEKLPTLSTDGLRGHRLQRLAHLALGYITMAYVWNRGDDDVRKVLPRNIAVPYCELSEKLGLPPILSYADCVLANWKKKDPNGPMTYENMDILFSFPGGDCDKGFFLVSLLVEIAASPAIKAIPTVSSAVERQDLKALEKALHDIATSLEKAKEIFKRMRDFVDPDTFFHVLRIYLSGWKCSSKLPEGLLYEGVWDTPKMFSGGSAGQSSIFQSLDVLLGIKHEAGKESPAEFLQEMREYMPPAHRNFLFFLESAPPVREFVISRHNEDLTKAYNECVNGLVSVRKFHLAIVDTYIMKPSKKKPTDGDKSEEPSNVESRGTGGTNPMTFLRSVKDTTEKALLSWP
Method: Prior to the experiment, 60 mg/kg sodium pentobarbital was injected into the abdominal cavity of the animals for anesthetizing. […] LPS was dissolved in PBS, and the dose is 25 μg/20 μL per animal. As a control, another 6 mice were received the same volume of PBS through the nasal cavity. Subsequently, the animals were housed as usual, and their plasma were collected at 25 h, 26 h, and 30 h after LPS/PBS induction, and the lung samples were collected at 26 h and 30 h (3 animals per a time point) and determined the kynurenine (Kyn) level.
Group 1, 40% polyethylene glycol 400 (PEG400) aqueous solution orally as a solvent control;
Group 2, 50 mg/kg NLG919 orally, formulated in 40% PEG400 aqueous solution;
Plasma were collected at 1 h, 2 h, 4 h and 6 h after the end of the last administration, and lung samples were collected at 2 h and 6 h (3 to 5 animals per a time point) and determined the Kyn level by the LC/MS method.

T1 sequence (P14902 whole entry): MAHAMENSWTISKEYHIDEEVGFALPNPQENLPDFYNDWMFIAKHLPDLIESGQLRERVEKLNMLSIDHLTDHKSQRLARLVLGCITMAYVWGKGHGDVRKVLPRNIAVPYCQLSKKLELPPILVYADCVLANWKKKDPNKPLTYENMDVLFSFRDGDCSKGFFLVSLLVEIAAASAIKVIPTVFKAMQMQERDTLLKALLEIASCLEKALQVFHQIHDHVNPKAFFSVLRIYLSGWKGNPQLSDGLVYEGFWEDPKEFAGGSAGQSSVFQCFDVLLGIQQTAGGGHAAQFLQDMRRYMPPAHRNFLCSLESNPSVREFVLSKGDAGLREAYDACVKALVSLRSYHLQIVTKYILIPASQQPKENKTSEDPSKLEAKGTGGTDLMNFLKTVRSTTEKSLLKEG
T2 sequence (P14902 whole entry): as above

Structure (SMILES)	IC50 [1]	IC50 [2]	in vivo activity of IDO1 / reduction of the Kyn level in lung and plasma (IDO1; 50 mg/kg orally at 0, 12 h and 24 h after induction, plasma 1-6 h, lung 2 h and 6 h after last administration)	degree of Kyn level reduction in lung and plasma compared to NLG919 (IDO1; 50 mg/kg orally, comparison with NLG919 at same dose, 50 mg/kg)
OC1CCC(C2c3sccc3-c3cncn32)CC1 (single isomer, unassigned) [Example 117, 4-(8H-thieno[3,4]pyrrolo[1,5-a]imidazol-8-yl)-cyclohexanol]	215 nM	891 nM		
CC(C)(C(O)C1CCCCC1)C1c2sccc2-c2cncn21 (single isomer, unassigned) [Example 119, 1-cyclohexyl-2-methyl-2-(8H-thieno[3,4]pyrrolo[1,5-a]imidazol-8-yl)-propan-1-ol]	390 nM	1980 nM		
OC(CC1c2ccsc2-c2cncn21)C1CCCCC1 (centres unmarked) [Example 4, 1-cyclohexyl-2-(4H-thieno[3,4]pyrrolo[1,5-a]imidazol-4-yl)ethanol]	83.6 nM	613 nM		

Now those with a lower IC50 [1], led by results:

IC50 [1]	IC50 [2]	Structure (SMILES)	in vivo activity of IDO1 / reduction of the Kyn level in lung and plasma (IDO1; 50 mg/kg orally at 0, 12 h and 24 h after induction, plasma 1-6 h, lung 2 h and 6 h after last administration)	degree of Kyn level reduction in lung and plasma compared to NLG919 (IDO1; 50 mg/kg orally, comparison with NLG919 at same dose, 50 mg/kg)
7.22 nM	5.08 nM	OC(CC1c2sccc2-c2cncn21)C1CCCCC1 (single isomer, unassigned) [Example 7, cyclohexyl-2-(8H-thieno[3′,2′:3,4]pyrrolo[1,2-c]imidazol-8-yl)ethanol]	effectively inhibited in vivo activity of IDO1 and caused reduction of the Kyn level in lung and plasma	more significant than that of NLG919; also recorded: significantly reduced the Kyn level in lung and plasma
46 nM	90.5 nM	FC1(CCC2c3sccc3-c3cncn32)CCCCC1 (centres unmarked) [Example 39, 8-(2-(1-fluorocyclohexyl)ethyl)-8H-thieno[3′,2′:3,4]pyrrolo[1,2-c]imidazole]		
11.4 nM	28 nM	O[C@@H](C[C@H]1c2sccc2-c2cncn21)C1CCC(F)(F)CC1 [Example 46, (1S)-1-(4,4-difluorocyclohexyl)-2-((S)-8H-thieno[3,4]pyrrolo[1,5-a]imidazol-8-yl)ethanol]		
